As a reminder, the IC50 is the point on the concentration scale where inhibition reaches its midpoint.

The subject of the assay is Foxp3 induction in CD4 conventional T cells (iTreg induction). The assay is described as follows: Foxp3 induction assay. Type of assay: cell-based, C57/B16 mice. To be noted: T-cell, 72 h; mouse CD4 Tconvs, anti-CD3/anti-CD28, IL2, TGF-β, 3 days of culture, flow cytometry; read-out: IC50 value as measured by the Foxp3 induction assay. As to the method: Sorted or enriched (Miltenyi magnetic separation) CD4 conventional T cells (Tconvs −CD4+/CD25) from C57/B16 mice were used for the induction of iTregs. A 10 µg/mL plate-bound anti-CD3 antibody (50 ul per well for 96-well plate), […] of soluble anti-CD28 antibody, 100 IU/mL of IL2 and 5 ng/mL of TGF-β in absence or presence of different concentrations of drug (usually titrating from 0.01 uM to 10 uM) were used. As negative control for induction, samples without TGF-β were used.
After 3 days of culture in presence of stimulation, TGF-β and drug, cells were stained with fixable live/dead cell stain (Life Technologies, NY) for gating and exclusion of toxic doses. The mouse Foxp3 buffer kit was used to fix and permeabilize cells according to the manufacturer's instructions (BD Bioscience, San Jose, CA). The anti-CD4 antibody and anti-Foxp3 antibody were used to stain the cells. After staining, cells were acquired using flow cytometer.

For the compound `O=C(Nc1ccc2c(c1)Nc1ccncc1CC2)c1ccc(Nc2ccncc2)cc1` [Compound 1, N-(10,11-dihydro-5H-benzo[b]pyrido[3,4-f]azepin-7-yl)-4-(pyridin-4-ylamino)benzamide], the IC50 was less than 1 µM.

Values taken from patent US20250074905A1, “AKT3 MODULATORS” (Georgiamune Inc., priority 2021, published 2025).
